Numbers after ± are expanded uncertainties.
Experiment: xn = mol fraction of the nth substance listed
Conditions: 101 kPa, Liquid; for viscosity: Concentric cylinders viscometry; for mass density: Vibrating tube method

O=S1(=O)CCCC1 [sulfolane] + CCC(C)O
Conditions | mass density, 303.15 K [kg/m3] | mass density, 313.15 K [kg/m3] | mass density, 323.15 K [kg/m3] | mass density, 333.15 K [kg/m3] | mass density, 343.15 K [kg/m3] | viscosity, 303.15 K [mPa·s] | viscosity, 313.15 K [mPa·s] | viscosity, 323.15 K [mPa·s] | viscosity, 333.15 K [mPa·s] | viscosity, 343.15 K [mPa·s]
x1 = 0.099 | 846.6 ± 0.6 | 837.8 ± 0.6 | 828.8 ± 0.6 | 819.3 ± 0.6 | 809.4 ± 0.6 | 2.16 ± 0.02 | 1.62 ± 0.01 | 1.26 ± 0.01 | 1 ± 0.01 | 0.8 ± 0.01
x1 = 0.198 | 894.1 ± 0.6 | 885.2 ± 0.6 | 876 ± 0.6 | 866.7 ± 0.6 | 857 ± 0.6 | 2.17 ± 0.02 | 1.67 ± 0.02 | 1.33 ± 0.01 | 1.08 ± 0.01 | 0.89 ± 0.01
x1 = 0.298 | 941.7 ± 0.6 | 932.9 ± 0.6 | 923.8 ± 0.6 | 914.6 ± 0.6 | 905 ± 0.6 | 2.34 ± 0.02 | 1.83 ± 0.02 | 1.49 ± 0.01 | 1.21 ± 0.01 | 1.01 ± 0.01
x1 = 0.38 | 980.6 ± 0.6 | 971.7 ± 0.6 | 962.6 ± 0.6 | 953.3 ± 0.6 | 943.9 ± 0.6 | 2.56 ± 0.02 | 2.01 ± 0.02 | 1.63 ± 0.02 | 1.35 ± 0.01 | 1.14 ± 0.01
x1 = 0.499 | 1036.4 ± 0.6 | 1027.5 ± 0.6 | 1018.4 ± 0.6 | 1009.3 ± 0.6 | 1000 ± 0.6 | 2.98 ± 0.03 | 2.37 ± 0.02 | 1.93 ± 0.02 | 1.61 ± 0.02 | 1.37 ± 0.01
x1 = 0.593 | 1079.6 ± 0.6 | 1070.7 ± 0.6 | 1061.8 ± 0.6 | 1052.7 ± 0.6 | 1043.5 ± 0.6 | 3.46 ± 0.03 | 2.77 ± 0.02 | 2.27 ± 0.02 | 1.89 ± 0.02 | 1.62 ± 0.02
x1 = 0.691 | 1125.1 ± 0.7 | 1116.2 ± 0.7 | 1107.2 ± 0.7 | 1098.2 ± 0.6 | 1089.2 ± 0.6 | 4.19 ± 0.04 | 3.36 ± 0.03 | 2.76 ± 0.02 | 2.31 ± 0.02 | 1.97 ± 0.02
x1 = 0.799 | 1173.9 ± 0.7 | 1165.1 ± 0.7 | 1156.2 ± 0.7 | 1147.4 ± 0.7 | 1138.5 ± 0.7 | 5.41 ± 0.05 | 4.32 ± 0.04 | 3.53 ± 0.03 | 2.94 ± 0.03 | 2.49 ± 0.02
x1 = 0.9 | 1219 ± 0.7 | 1210.1 ± 0.7 | 1201.4 ± 0.7 | 1192.5 ± 0.7 | 1183.7 ± 0.7 | 7.23 ± 0.07 | 5.72 ± 0.05 | 4.63 ± 0.04 | 3.82 ± 0.03 | 3.21 ± 0.03
x1 = 1 | 1262.9 ± 0.6 | 1254.1 ± 0.6 | 1245.2 ± 0.6 | 1236.6 ± 0.6 | 1228.1 ± 0.6 | 10.4 ± 0.1 | 8.07 ± 0.07 | 6.45 ± 0.06 | 5.22 ± 0.05 | 4.32 ± 0.04

O=S1(=O)CCCC1 [sulfolane] + OCCOCCO
Conditions | mass density, 303.15 K [kg/m3] | mass density, 313.15 K [kg/m3] | mass density, 323.15 K [kg/m3] | mass density, 333.15 K [kg/m3] | mass density, 343.15 K [kg/m3] | viscosity, 303.15 K [mPa·s] | viscosity, 313.15 K [mPa·s] | viscosity, 323.15 K [mPa·s] | viscosity, 333.15 K [mPa·s] | viscosity, 343.15 K [mPa·s]
x1 = 0.097 | 1125 ± 0.5 | 1117.6 ± 0.5 | 1110.2 ± 0.5 | 1102.7 ± 0.5 | 1094.9 ± 0.5 | 19.1 ± 0.2 | 12.9 ± 0.1 | 9.13 ± 0.08 | 6.74 ± 0.06 | 5.15 ± 0.04
x1 = 0.198 | 1140 ± 0.5 | 1132.5 ± 0.5 | 1124.8 ± 0.5 | 1117 ± 0.5 | 1109.1 ± 0.5 | 16.3 ± 0.1 | 11.2 ± 0.1 | 8.04 ± 0.07 | 6.01 ± 0.05 | 4.65 ± 0.04
x1 = 0.319 | 1158.2 ± 0.5 | 1150.3 ± 0.5 | 1142.3 ± 0.5 | 1134.2 ± 0.5 | 1126.1 ± 0.5 | 13.8 ± 0.1 | 9.62 ± 0.08 | 7.03 ± 0.06 | 5.35 ± 0.05 | 4.19 ± 0.04
x1 = 0.414 | 1172.2 ± 0.5 | 1164.2 ± 0.5 | 1156.1 ± 0.5 | 1147.8 ± 0.5 | 1139.6 ± 0.5 | 12.2 ± 0.1 | 8.7 ± 0.07 | 6.46 ± 0.06 | 4.97 ± 0.04 | 3.94 ± 0.03
x1 = 0.499 | 1185.2 ± 0.6 | 1176.9 ± 0.6 | 1168.6 ± 0.5 | 1160.3 ± 0.5 | 1151.9 ± 0.5 | 11.2 ± 0.1 | 8.07 ± 0.07 | 6.07 ± 0.05 | 4.72 ± 0.04 | 3.78 ± 0.03
x1 = 0.614 | 1202.9 ± 0.6 | 1194.5 ± 0.6 | 1186 ± 0.6 | 1177.5 ± 0.5 | 1169 ± 0.5 | 10.2 ± 0.1 | 7.49 ± 0.06 | 5.72 ± 0.05 | 4.5 ± 0.04 | 3.64 ± 0.03
x1 = 0.698 | 1215.6 ± 0.6 | 1207.1 ± 0.6 | 1198.5 ± 0.6 | 1190 ± 0.6 | 1181.3 ± 0.6 | 9.72 ± 0.08 | 7.25 ± 0.06 | 5.61 ± 0.05 | 4.47 ± 0.04 | 3.64 ± 0.03
x1 = 0.789 | 1229.7 ± 0.6 | 1221.1 ± 0.6 | 1212.5 ± 0.6 | 1203.8 ± 0.6 | 1195.1 ± 0.6 | 9.35 ± 0.08 | 7.08 ± 0.06 | 5.54 ± 0.05 | 4.46 ± 0.04 | 3.66 ± 0.03
x1 = 0.887 | 1245 ± 0.6 | 1236.3 ± 0.6 | 1227.5 ± 0.6 | 1218.8 ± 0.6 | 1210.1 ± 0.6 | 9.39 ± 0.08 | 7.23 ± 0.06 | 5.72 ± 0.05 | 4.64 ± 0.04 | 3.84 ± 0.03
x1 = 1 | 1262.9 ± 0.6 | 1254.1 ± 0.6 | 1245.2 ± 0.6 | 1236.6 ± 0.6 | 1228.1 ± 0.6 | 10.4 ± 0.1 | 8.07 ± 0.07 | 6.45 ± 0.06 | 5.22 ± 0.05 | 4.32 ± 0.04

OCCOCCOCCO [triethylene glycol] + O=S1(=O)CCCC1
Conditions | mass density, 303.15 K [kg/m3] | mass density, 313.15 K [kg/m3] | mass density, 323.15 K [kg/m3] | mass density, 333.15 K [kg/m3] | mass density, 343.15 K [kg/m3] | viscosity, 303.15 K [mPa·s] | viscosity, 313.15 K [mPa·s] | viscosity, 323.15 K [mPa·s] | viscosity, 333.15 K [mPa·s] | viscosity, 343.15 K [mPa·s]
x2 = 0 | 1116.5 ± 0.5 | 1108.9 ± 0.5 | 1101.1 ± 0.5 | 1093.4 ± 0.5 | 1085.5 ± 0.5 | 29.5 ± 0.3 | 19.3 ± 0.2 | 13.3 ± 0.1 | 9.58 ± 0.08 | 7.16 ± 0.06
x2 = 0.123 | 1130.3 ± 0.5 | 1122.4 ± 0.5 | 1114.6 ± 0.5 | 1106.6 ± 0.5 | 1098.5 ± 0.5 | 25.6 ± 0.2 | 16.9 ± 0.2 | 11.8 ± 0.1 | 8.6 ± 0.07 | 6.49 ± 0.06
x2 = 0.268 | 1147.6 ± 0.5 | 1139.5 ± 0.5 | 1131.5 ± 0.5 | 1123.3 ± 0.5 | 1115 ± 0.5 | 21.2 ± 0.2 | 14.3 ± 0.1 | 10.1 ± 0.1 | 7.49 ± 0.06 | 5.74 ± 0.05
x2 = 0.505 | 1178.8 ± 0.5 | 1170.5 ± 0.5 | 1161.9 ± 0.5 | 1153.4 ± 0.5 | 1145 ± 0.5 | 15.6 ± 0.1 | 10.9 ± 0.1 | 8 ± 0.07 | 6.09 ± 0.05 | 4.78 ± 0.04
x2 = 0.598 | 1192.2 ± 0.6 | 1183.7 ± 0.6 | 1175.1 ± 0.5 | 1166.6 ± 0.5 | 1158 ± 0.5 | 13.9 ± 0.1 | 9.9 ± 0.08 | 7.36 ± 0.06 | 5.67 ± 0.05 | 4.49 ± 0.04
x2 = 0.678 | 1204.5 ± 0.6 | 1196 ± 0.6 | 1187.5 ± 0.6 | 1178.8 ± 0.6 | 1170.1 ± 0.5 | 12.6 ± 0.1 | 9.13 ± 0.08 | 6.88 ± 0.06 | 5.36 ± 0.05 | 4.29 ± 0.04
x2 = 0.768 | 1219 ± 0.6 | 1210.3 ± 0.6 | 1201.5 ± 0.6 | 1192.9 ± 0.6 | 1184.3 ± 0.6 | 11.4 ± 0.1 | 8.4 ± 0.07 | 6.43 ± 0.06 | 5.09 ± 0.04 | 4.12 ± 0.04
x2 = 0.837 | 1231.3 ± 0.6 | 1222.6 ± 0.6 | 1213.9 ± 0.6 | 1205.2 ± 0.6 | 1196.4 ± 0.6 | 10.8 ± 0.1 | 8.11 ± 0.07 | 6.29 ± 0.05 | 5.01 ± 0.04 | 4.1 ± 0.04
x2 = 0.929 | 1248.8 ± 0.6 | 1240 ± 0.6 | 1231.2 ± 0.6 | 1222.4 ± 0.6 | 1213.7 ± 0.6 | 10.3 ± 0.1 | 7.89 ± 0.07 | 6.22 ± 0.05 | 5.02 ± 0.04 | 4.13 ± 0.04

Reference: the NIST ThermoML archive (doi:10.1021/je500153g)
